From PubChem BioAssay AID330 (DTP/NCI, 2004) come the findings set out here.

Values joined by “and” are separate entries in the source; they are usually repeats but may differ in a detail not shown here. Identical values can stand only once. Toxic doses and inconclusive results are not listed.

This assay concerns P388 leukemia ip, CD2F1 mice, survival T/C. Kind of assay: NCI In Vivo Anticancer Drug Screen. Data for tumor model P388 Leukemia (intraperitoneal) in CD2F1 (CDF1) mice. The settings on record: endpoint: median survival time, higher = longer survival. The procedure, abridged: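 Mice carrying the transplanted tumor received test compound or vehicle. Survival was recorded in each group, and the value is the treated-group measurement divided by that of the vehicle-treated control group.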

Setting [1] is: dose: 50.0 mg/kg/injection, schedule: Q01DX009 (ip), vehicle: saline with Tween-80.
Setting [2] is: dose: 100.0 mg/kg/injection, schedule: Q01DX009 (ip), vehicle: saline with Tween-80.
[3] abbreviates: dose: 200.0 mg/kg/injection, schedule: Q01DX009 (ip), vehicle: saline with Tween-80.
[4] abbreviates: dose: 6.25 mg/kg/injection, schedule: Q01DX009 (ip), vehicle: saline with Tween-80.
Where [5] appears, read: dose: 12.5 mg/kg/injection, schedule: Q01DX009 (ip), vehicle: saline with Tween-80.
Setting [6] is: dose: 25.0 mg/kg/injection, schedule: Q01DX009 (ip), vehicle: saline with Tween-80.
The mark [7] stands for this setting: dose: 100.0 mg/kg/injection, schedule: Q01DX005 (ip), vehicle: Klucel (hydroxypropylcellulose) (HPC).
Where [8] appears, read: dose: 200.0 mg/kg/injection, schedule: Q01DX005 (ip), vehicle: Klucel (hydroxypropylcellulose) (HPC).
[9] abbreviates: dose: 50.0 mg/kg/injection, schedule: Q01DX005 (ip), vehicle: saline with Tween-80.
Setting [10] is: dose: 100.0 mg/kg/injection, schedule: Q01DX005 (ip), vehicle: saline with Tween-80.
[11] abbreviates: dose: 400.0 mg/kg/injection, schedule: Q01DX009 (ip), vehicle: saline with Tween-80.
Where [12] appears, read: dose: 50.0 mg/kg/injection, schedule: Q01DX005 (ip), vehicle: Klucel (hydroxypropylcellulose) (HPC).
Where [13] appears, read: dose: 100.0 mg/kg/injection, schedule: Q01DX001 (ip), vehicle: saline with Tween-80.
The mark [14] stands for this setting: dose: 200.0 mg/kg/injection, schedule: Q01DX001 (ip), vehicle: saline with Tween-80.
Setting [15] is: dose: 400.0 mg/kg/injection, schedule: Q01DX001 (ip), vehicle: saline with Tween-80.
[16] abbreviates: dose: 50.0 mg/kg/injection, schedule: Q01DX009 (ip), vehicle: saline.
Where [17] appears, read: dose: 100.0 mg/kg/injection, schedule: Q01DX009 (ip), vehicle: saline.
The mark [18] stands for this setting: dose: 200.0 mg/kg/injection, schedule: Q01DX009 (ip), vehicle: saline.
Setting [19] is: dose: 25.0 mg/kg/injection, schedule: Q04DX003 (ip), vehicle: saline with Tween-80.

As to `COCC1(C)CCCC2(C)C1CCC1(O)CCCCC12O` (centres undefined), the T/C by setting is: (dose: 100.0 mg/kg/injection, schedule: Q01DX001 (ip), vehicle: saline) 100 % of control; (dose: 200.0 mg/kg/injection, schedule: Q01DX001 (ip), vehicle: saline) 100 % of control; (dose: 400.0 mg/kg/injection, schedule: Q01DX001 (ip), vehicle: saline) 108 % of control.
As for `CC1SC(C)(C)N(C=O)C1C(=O)O` (centres undefined), the T/C is, setting by setting: under setting [1], 99 % of control and 100 % of control; under setting [2], 101 % of control and 91 % of control; under setting [3], 106 % of control and 94 % of control.
As to `CCOC(=O)CNc1c2ccc(Cl)cc2nc2ccc(OC)cc12`, the T/C is 97 % of control under setting [4]; 104 % of control under setting [5]; 111 % of control under setting [6]; 108 % of control under setting [1]; 104 % of control under setting [2].
In the case of `Cc1ccc(NC(=S)NNC(=S)NNc2ccccc2)cc1C`, the T/C runs as follows: under setting [7], 95 % of control; under setting [8], 101 % of control; (dose: 400.0 mg/kg/injection, schedule: Q01DX005 (ip), vehicle: Klucel (hydroxypropylcellulose) (HPC)) 106 % of control.
As for `O=C1CC(O)C(Cc2ccccc2)N1` (centres undefined), the T/C was 97 % of control under setting [9]; 98 % of control under setting [10]; 97 % of control (dose: 200.0 mg/kg/injection, schedule: Q01DX005 (ip), vehicle: saline with Tween-80).
Take `O=C(O)c1cc(NCCO)c(C(=O)O)cc1NCCO`: the T/C by setting is: (dose: 50.0 mg/kg/injection, schedule: Q01DX005 (ip), vehicle: saline) 97 % of control; (dose: 100.0 mg/kg/injection, schedule: Q01DX005 (ip), vehicle: saline) 100 % of control; (dose: 200.0 mg/kg/injection, schedule: Q01DX005 (ip), vehicle: saline) 91 % of control.
For `C/C=C/C[P+](C)(c1ccccc1)c1ccccc1`, the T/C (dose: 0.75 mg/kg/injection, schedule: Q01DX009 (ip), vehicle: saline) was 104 % of control.
On to `O=C(c1ccccc1)c1cc([N+](=O)[O-])cc([N+](=O)[O-])c1`, for which the T/C runs as follows: under setting [2], 104 % of control; under setting [3], 97 % of control; under setting [11], 97 % of control.
In the case of `CCn1c(O)c(N=NC(=S)NC)c2ccccc21`, the T/C is, setting by setting: (dose: 9.37 mg/kg/injection, schedule: Q01DX009 (ip), vehicle: saline with Tween-80) 101 % of control; (dose: 18.75 mg/kg/injection, schedule: Q01DX009 (ip), vehicle: saline with Tween-80) 104 % of control; (dose: 37.5 mg/kg/injection, schedule: Q01DX009 (ip), vehicle: saline with Tween-80) 93 % of control.
For `NC(=O)C(=O)c1c(-c2ccccc2)c(-c2ccccc2)c2n1CCC2`, the T/C by setting is: under setting [12], 100 % of control; under setting [7], 99 % of control; under setting [8], 93 % of control.
Turning to `Cn1c2cc(O)cc(O)c2c(=O)c2cccc([N+](=O)[O-])c21`, the T/C was 104 % of control under setting [13], 103 % of control under setting [14] and 101 % of control under setting [15].
Take `CC(N)P(=O)(O)O` (centres undefined): the T/C (dose: 25.0 mg/kg/injection, schedule: Q01DX009 (ip), vehicle: saline) is 100 % of control; the T/C under setting [16] is 115 % of control; the T/C under setting [17] was 104 % of control and 87 % of control; the T/C under setting [18] is 106 % of control and 86 % of control.
Turning to `COCCCNC(=O)c1nnn2c1nc(N)c1cc(Cl)ccc12`, the T/C under setting [12] was 94 % of control and the T/C under setting [7] is 88 % of control.
Turning to `COc1cc2c(cc1O)CC1c3c(cc(O)c(OC)c3-2)CCN1C` (centres undefined), the T/C under setting [9] is 98 % of control and the T/C under setting [10] was 87 % of control.
For `O=C1C(c2ccccc2)=C(c2ccc(Br)cc2)C2(c3ccc(Br)cc3)CC12c1ccccc1` (centres undefined), the T/C reads like this: (dose: 50.0 mg/kg/injection, schedule: Q01DX005 (ip), vehicle: Klucel + Tween-80) 91 % of control; (dose: 100.0 mg/kg/injection, schedule: Q01DX005 (ip), vehicle: Klucel + Tween-80) 88 % of control.
Take `CC(=O)C1C(=O)C=C(C)OC1=O.CC(=O)C1C(=O)C=C(C)OC1=O.[Hg]` (centres undefined): the T/C (dose: 1.56 mg/kg/injection, schedule: Q01DX009 (ip), vehicle: Klucel (hydroxypropylcellulose) (HPC)) was 88 % of control; the T/C (dose: 3.12 mg/kg/injection, schedule: Q01DX009 (ip), vehicle: Klucel (hydroxypropylcellulose) (HPC)) is 101 % of control; the T/C (dose: 6.25 mg/kg/injection, schedule: Q01DX009 (ip), vehicle: Klucel (hydroxypropylcellulose) (HPC)) is 91 % of control and 93 % of control.
Regarding `CC(=N/N=C(N)N)/C(C)=N/N=C(N)N`, the T/C under setting [9] was 104 % of control and the T/C under setting [10] is 110 % of control.
Consider `Nc1nc(-c2cc(-c3ccco3)nc(N)n2)cc(-c2ccco2)n1`, for which the T/C is 103 % of control (dose: 60.0 mg/kg/injection, schedule: Q01DX005 (ip), vehicle: saline); 103 % of control (dose: 120.0 mg/kg/injection, schedule: Q01DX005 (ip), vehicle: saline); 101 % of control (dose: 240.0 mg/kg/injection, schedule: Q01DX005 (ip), vehicle: saline).
With `CCCC(C(CC)CNC(=O)Nc1cccc2ccccc12)N(C)C(=O)Nc1cccc2ccccc12` (centres undefined), the T/C under setting [1] was 93 % of control, the T/C under setting [2] was 92 % of control, the T/C under setting [3] was 94 % of control and the T/C under setting [11] is 99 % of control.
Turning to `O=NNc1cccnc1`, the T/C is, setting by setting: (dose: 3.12 mg/kg/injection, schedule: Q01DX009 (ip), vehicle: water) 108 % of control; (dose: 6.25 mg/kg/injection, schedule: Q01DX009 (ip), vehicle: water) 101 % of control and 105 % of control; (dose: 12.5 mg/kg/injection, schedule: Q01DX009 (ip), vehicle: water) 107 % of control and 110 % of control.
For the compound `C[n+]1c2ccccc2cc2ccccc21`, the T/C under setting [19] was 86 % of control.
As for `COc1ccc(/C=N/Nc2ccccc2)cc1`, the T/C is 99 % of control under setting [1], 92 % of control under setting [2], 99 % of control under setting [3] and 94 % of control under setting [11].
Regarding `O=[n+]1c2c(n([O-])c3ccccc31)CCCCCC2`, the T/C runs as follows: under setting [1], 108 % of control; under setting [2], 99 % of control; under setting [3], 100 % of control.
On to `COc1cc(OC)c2c(=O)cc(-c3ccccc3)sc2c1`, for which the T/C was 100 % of control under setting [13], 94 % of control under setting [14] and 95 % of control under setting [15].
With `N#CCc1ccc(Cl)c(Cl)c1`, the T/C was 104 % of control under setting [4]; 100 % of control under setting [5]; 100 % of control (dose: 12.5 mg/kg/injection, schedule: Q04DX003 (ip), vehicle: saline with Tween-80); 100 % of control under setting [6]; 100 % of control under setting [19].
As to `COc1ccc(C2c3cc4c(cc3OC(C)(N3CCCC3)C2C)OCO4)c(OC)c1OC` (centres undefined), the T/C (dose: 60.0 mg/kg/injection, schedule: Q01DX005 (ip), vehicle: saline with Tween-80) is 100 % of control; the T/C (dose: 120.0 mg/kg/injection, schedule: Q01DX005 (ip), vehicle: saline with Tween-80) was 95 % of control; the T/C (dose: 240.0 mg/kg/injection, schedule: Q01DX005 (ip), vehicle: saline with Tween-80) was 96 % of control.
Consider `O=C(CCCNC(=O)OCc1ccccc1)OCc1ccc2c(c1)C(=O)c1ccccc1C2=O`, for which the T/C runs as follows: (dose: 100.0 mg/kg/injection, schedule: Q01DX001 (ip), vehicle: Klucel (hydroxypropylcellulose) (HPC)) 89 % of control; (dose: 200.0 mg/kg/injection, schedule: Q01DX001 (ip), vehicle: Klucel (hydroxypropylcellulose) (HPC)) 88 % of control; (dose: 400.0 mg/kg/injection, schedule: Q01DX001 (ip), vehicle: Klucel (hydroxypropylcellulose) (HPC)) 86 % of control.
Take `O=C(O)c1[nH]c(=O)[nH]c(=O)c1[N+](=O)[O-]`: the T/C is 93 % of control under setting [12], 98 % of control under setting [7] and 98 % of control under setting [8].
`Cc1cc(CO)cc(CO)c1`: the T/C by setting is: under setting [13], 104 % of control; under setting [14], 101 % of control; under setting [15], 100 % of control.
In the case of `CC(Nc1cccc(Cl)c1)S(=O)(=O)O` (centres undefined), the T/C reads like this: under setting [16], 100 % of control; under setting [17], 100 % of control; under setting [18], 94 % of control.
